Assay results taken from patent publication US12344588B2, “Sulfonamide compounds and use thereof” (Taiho Pharmaceutical Co., Ltd., priority 2017, dated 2025).
Converted amounts (≈) assume the structure as drawn.

Assays:
Assay type in all cases: physicochemical
[1] = Solubility test; details: for solubility at 2 h: 37 °C, thermodynamic from solid; for Solubility: 2 hours
Protocol: About 15 mg of the exemplary sample of the present invention was added to 1 mL of each solvent and was swelled at 37° C. for 2 hours under light resistant condition. After centrifugation, each supernatant was filtered, and 0.7 mL of a mixture of water and acetonitrile (1:1) was added to 0.1 mL of the filtrate.
Following of mobile phase: Control the gradient by mixing the mobile phase A and B as directed in the following table below • Flow rate: 1.0 mL per minutes • Time span of measurement: For 12 minutes after injection

[2] = Stability test, optical purity by chiral HPLC; details: 40° C./75% RH (closed and open condition), 24 hours
Protocol: The optical purity was also measured by the following HPLC condition • Detector: UV at 240 nm • Column: […] IE (4.6×250 mm, 5 μm)/Daicel corp. • Column temperature: 40° C. • Mobile phase: n-hexane/ethanol/ethanolamine/acetic acid (65:35:0.5:0.2) • Flow rate: 1.0 mL/min • Injection: 5 μL • Sample temperature: 5° C. • Time span of measurement: 40 min Limit of Quantitation (LOQ): • Compound—RR,RS,SS: 0.05%
The optical purity was measured also with added 0.2% optical isomer.
The solid stability of the exemplary sample of the present invention and the free form obtained above was tested before and after the sample was stored at 40° C./75% RH (closed and open condition) for 24 hours.

[3] = Hygroscopicity: moisture adsorption/desorption test; details: relative humidity of 95%, 25° C.
Protocol: The moisture adsorption/desorption test was carried out according to the following conditions.
Approximately 10 to 15 mg of the sample was filled in a dedicated quartz holder, and the weight of each sample at each humidity was continuously measured and recorded under the following conditions.

Row | solubility at 2 h ([1]; 50 mM acetate buffer, pH 4, aqueous buffer, Acetate buffer (50 mM, pH 4.0)) [mg/mL] | solubility at 2 h ([1]; 0.5% HPMC, aqueous with cosolvent or surfactant or cyclodextrin) [mg/mL] | solubility at 2 h ([1]; First fluid for dissolution test, pH 1.2, simulated gastric fluid, pH 1.2, 37° C.) [mg/mL] | solubility at 2 h ([1]; Second fluid for dissolution test, pH 6.8, aqueous buffer, pH 6.8, 37° C.) [mg/mL] | solubility at 2 h ([1]; water) [mg/mL] | change in the optical purity after storage [2] | hygroscopicity: mass change in moisture adsorption/desorption test ([3]; listed as free form) | Solubility ([1]; First fluid for dissolution test, pH 1.2, 37° C.) [mg/mL] | Solubility ([1]; water, 37° C.) [mg/mL] | hygroscopicity: mass change in moisture adsorption/desorption test ([3]; listed as obtained product) | SMILES
1 | 0.25 (≈ 518 µM) | 0.19 (≈ 393 µM) | 0.23 (≈ 476 µM) | 0.8 (≈ 1660 µM) | 0.23 (≈ 476 µM) | No significant change | about 3.8% | – | – | – | Cc1ccc(F)c([C@@H](C)[C@H](NS(=O)(=O)c2ccc(Cl)cc2C(N)=O)c2n[nH]c(=O)o2)c1C [Comparative Example, 5-chloro-2-(N-((1S,2R)-2-(6-fluoro-2,3-dimethylphenyl)-1-(5-oxo-4,5-dihydro-1,3,4-oxadiazol-2-yl)propyl)sulfamoyl)benzamide]
2 | – | – | – | – | – | No significant change | – | 0.23 (≈ 476 µM) | 0.23 (≈ 476 µM) | about 0.1% | Cc1ccc(F)c([C@@H](C)[C@H](NS(=O)(=O)c2ccc(Cl)cc2C(N)=O)c2n[nH]c(=O)o2)c1C [Exemplary Sample, 5-chloro-2-(N-((1S,2R)-2-(6-fluoro-2,3-dimethylphenyl)-1-(5-oxo-4,5-dihydro-1,3,4-oxadiazol-2-yl)propyl)sulfamoyl)benzamide]
